Consider 20 compounds from patent publication US20250092056A1, “URACIL DERIVATIVES HAVING VIRUS REPLICATION INHIBITORY ACTIVITY AND PHARMACEUTICAL COMPOSITION COMPRISING THE SAME” (Shionogi & Co., Ltd., priority 2022, published 2025).

Each structure is given as a SMILES string. Read-outs that look alike come from different tables or passages of the source.

In test [1] the test system is SARS-CoV-2. In words: Cytopathic effect (CPE) suppression effect confirmation test using HEK293T/ACE2-TMPRSS2 cells. The format is cell-based. The conditions noted are these: Severe acute respiratory syndrome coronavirus 2, HEK-293T, 72 h.
In test [2] the target is Recombinant SARS-CoV-2 3CL Protease (Severe acute respiratory syndrome coronavirus 2 (2019-nCoV) (SARS-CoV-2), UniProt P0DTD1). In words: biochemical. In kind it is biochemical. The conditions noted are these: 50% SARS-CoV-2 3CL protease inhibitory concentration; read-out: IC50.
The mark [3] stands for this setting: read-out: EC50 (50% SARS-CoV-2 infected cell death inhibitory concentration), class, HEK293T/ACE2-TMPRSS2 cells, CPE suppression, CellTiter-Glo 2.0 after 3 days culture.
Setting [4] is: HEK293T/ACE2-TMPRSS2 cells, CPE suppression, CellTiter-Glo 2.0 after 3 days culture, read-out: EC50 (50% SARS-CoV-2 infected cell death inhibitory concentration), class.

On to `N#CCn1c(N2CC(F)(C3CC3)C2)c(-c2ccc(F)c(Cl)c2)c(=O)n(-c2cncc(Cl)c2)c1=O` [Compound I-076], for which the EC50 in test [1] (setting [3]) is less than 100 nM. For the same compound, the concentration for half-maximal inhibition (IC50) in test [2] is less than 10 nM.

In the case of `N#CCn1c(N2CC3(CC3)C2)c(-c2ccc(F)c(Cl)c2)c(=O)n(-c2cncc(Cl)c2)c1=O` [Compound I-078], the EC50 in test [1] (setting [3]) is less than 100 nM. The IC50 in test [2] is less than 10 nM.

As to `N#CCn1c(N2CC(c3nccs3)C2)c(-c2ccc(F)c(Cl)c2)c(=O)n(-c2cncc(Cl)c2)c1=O` [Compound I-079], in test [1] (setting [3]), the EC50 is less than 100 nM. Further, in test [2], the IC50 was less than 10 nM.

`N#CCn1c(N2C[C@@H]3[C@@H](O)[C@@H]3C2)c(-c2ccc(F)c(Cl)c2)c(=O)n(-c2cncc(Cl)c2)c1=O` [Compound I-082]: the EC50 in test [1] (setting [3]) was less than 100 nM. Besides, the IC50 in test [2] is less than 10 nM.

For the compound `N#CCn1c(N2CC(c3ccccc3)C2)c(-c2ccc(F)c(Cl)c2)c(=O)n(-c2cncc(Cl)c2)c1=O` [Compound I-083], the EC50 in test [1] (setting [3]) is less than 100 nM. The IC50 in test [2] is less than 10 nM.

Regarding `CC(C)OC1CN(c2c(-c3ccc(F)c(Cl)c3)c(=O)n(-c3cncc(Cl)c3)c(=O)n2CC#N)C1` [Compound I-084], the EC50 in test [1] (setting [3]) is less than 100 nM. In test [2], the IC50 was less than 10 nM.

As for `N#CCn1c(N2CC(N3CCOCC3)C2)c(-c2ccc(F)c(Cl)c2)c(=O)n(-c2cncc(Cl)c2)c1=O` [Compound I-085], in test [1] (setting [3]), the EC50 is less than 100 nM. Further, the IC50 in test [2] is less than 10 nM.

Turning to `N#CCn1c(N2CC(C(F)(F)F)C2)c(-c2ccc(F)c(Cl)c2)c(=O)n(-c2cncc(Cl)c2)c1=O` [Compound I-086], the EC50 in test [1] (read-out: EC50 (50% SARS-CoV-2 infected cell death inhibitory concentration), HEK293T/ACE2-TMPRSS2 cells, CPE suppression, CellTiter-Glo 2.0 after 3 days culture) stood at 3.31 nM. In addition, in test [2], the IC50 is 0.7 nM.

Turning to `N#CCn1c(N2CCC(O)(C(F)(F)F)CC2)c(-c2ccc(F)c(Cl)c2)c(=O)n(-c2cncc(Cl)c2)c1=O` [Compound I-087], in test [1] (setting [3]), the EC50 is less than 100 nM. Also, the IC50 in test [2] is less than 10 nM.

As for `Cc1cncc(-n2c(=O)c(Cc3cc(F)c(F)c(F)c3)c(N3CC(F)C3)n(CC#N)c2=O)c1` [Compound I-090], the EC50 in test [1] (setting [4]) was less than 100 nM. Also, in test [2], the IC50 is 10 to 100 nM.

Take `Cc1cncc(-n2c(=O)c(Cc3cc(F)c(F)c(F)c3)c(N3CC4(CCOCC4)C3)n(CC#N)c2=O)c1` [Compound I-093]: in test [1] (setting [4]), the EC50 was less than 100 nM. Moreover, the IC50 in test [2] was 10 to 100 nM.

Regarding `Cc1cncc(-n2c(=O)c(Cc3cc(F)c(F)c(F)c3)c(N3CC[C@@H](C(N)=O)C3)n(CC#N)c2=O)c1` [Compound I-096], in test [1] (setting [3]), the EC50 was less than 100 nM. Also, in test [2], the IC50 was less than 10 nM.

`Cc1cncc(-n2c(=O)c(Cc3cc(F)c(F)c(F)c3)c(N3CCN(C)C(=O)C3)n(CC#N)c2=O)c1` [Compound I-098]: in test [1] (setting [3]), the EC50 is less than 100 nM. In addition, the IC50 in test [2] is less than 10 nM.

In the case of `Cc1cncc(-n2c(=O)c(Cc3cc(F)c(F)c(F)c3)c(N3CC4(CCOC4)C3)n(CC#N)c2=O)c1` [Compound I-101], the EC50 in test [1] (setting [3]) was less than 100 nM. Further, the IC50 in test [2] was less than 10 nM.

On to `Cc1cncc(-n2c(=O)c(Cc3cc(F)c(F)c(F)c3)c(N3CCC(CO)CC3)n(CC#N)c2=O)c1` [Compound I-104], for which, in test [1] (setting [3]), the EC50 was less than 100 nM. Moreover, the IC50 in test [2] is less than 10 nM.

On to `Cc1cncc(-n2c(=O)c(Cc3cc(F)c(F)c(F)c3)c(N3CC4(C3)CC(F)(F)C4)n(CC#N)c2=O)c1` [Compound I-105], for which the EC50 in test [1] (setting [3]) is less than 100 nM. In addition, the IC50 in test [2] was less than 10 nM.

On to `COC1CCN(c2c(Cc3cc(F)c(F)c(F)c3)c(=O)n(-c3cncc(C)c3)c(=O)n2CC#N)CC1` [Compound I-106], for which, in test [1] (setting [3]), the EC50 was less than 100 nM. Also, the 50% inhibitory concentration (IC50) in test [2] was less than 10 nM.

As for `Cc1cncc(-n2c(=O)c(Cc3cc(F)c(F)c(F)c3)c(N3CCC(C)(O)CC3)n(CC#N)c2=O)c1` [Compound I-109], the EC50 in test [1] (setting [3]) is less than 100 nM. The IC50 in test [2] is less than 10 nM.

As for `Cc1cncc(-n2c(=O)c(Cc3cc(F)c(F)c(F)c3)c(N3CCC4(CCOCC4)C3)n(CC#N)c2=O)c1` [Compound I-111], the EC50 in test [1] (setting [3]) is less than 100 nM. Besides, the IC50 in test [2] is less than 10 nM.

For `Cc1cncc(-n2c(=O)c(Cc3cc(F)c(F)c(F)c3)c(N3CCC(C(N)=O)CC3)n(CC#N)c2=O)c1` [Compound I-112], the EC50 in test [1] (setting [3]) is 100 to 1000 nM. Moreover, in test [2], the IC50 was less than 10 nM.
